Reference: ChEMBL document CHEMBL3272043, “Isoxazole anthelmintics” (1977)
Activity calls are given as the source filed them. The calls are words filed in the database; no cut-off is given here.

test system: Nippostrongylus brasiliensis; assay: Anthelmintic activity against Nippostrongylus brasiliensisin in parasitized po dosed albino rat assessed as dose required to 75 % clearance relative to untreated control; assay type: functional; settings: read-out: MED

Structure (SMILES) | minimal effective dose [mg/kg]
Clc1cc(-c2ccc(Cl)c(Cl)c2)on1 | 250
Clc1ccc(-c2cc(Br)no2)cc1 | 250
Clc1cc(-c2ccccc2)no1 | 16
Brc1cc(-c2ccccc2)no1 | 16
Clc1cc(-c2cccs2)on1 | 250
CCSc1cc(-c2ccccc2)no1 | 125
C=CCCCOc1cc(-c2ccccc2)no1 | 125
Brc1cc(-c2ccccc2)on1 | 31
Ic1cc(-c2ccccc2)on1 | 250
Cc1ccc(-c2cc(Cl)no2)cc1 | 500
COc1cc(-c2ccccc2)no1 | 31
Clc1ccc(-c2cc(Cl)no2)cc1 | 62
CCOc1cc(-c2ccccc2)no1 | 31
Clc1cc(-c2ccccc2)on1 | 31
c1ccc(-c2cc(N3CCOCC3)on2)cc1 | 500
CSc1cc(-c2ccccc2)no1 | 31
Clc1ccc(-c2cc(Cl)no2)c(Cl)c1 | 62
Clc1noc(-c2ccccc2)c1Cl | 31
CN(C)c1cc(-c2ccccc2)no1 | 125

test system: Nippostrongylus brasiliensis; assay: Anthelmintic activity against Nippostrongylus brasiliensisin in parasitized albino rat assessed as dose required to 75 % clearance at 500 mg/kg, po relative to untreated control; assay type: functional, organism-based; set-up: dose 500 mg/kg; settings: not given

Structure (SMILES) | Activity
Nc1cc(-c2ccccc2)on1 | inactive
O=C(CC[N+](=O)[O-])c1cccs1 | inactive
COc1onc(-c2ccccc2)c1Cl | inactive
O=[N+]([O-])c1ccc(-c2cc(Cl)no2)cc1 | inactive
FC(F)(F)c1cc(-c2ccccc2)no1 | inactive
CS(=O)(=O)c1cc(-c2ccccc2)no1 | inactive
O=C(CC[N+](=O)[O-])c1ccc(Cl)c(Cl)c1 | inactive
O=C(CC[N+](=O)[O-])c1ccccc1 | inactive
c1ccc(-c2ccon2)cc1 | inactive
C=CCc1c(-c2ccccc2)noc1Cl | inactive
C[S+]([O-])c1cc(-c2ccccc2)no1 (stereo not drawn) | inactive
Clc1onc(-c2ccccc2)c1Cl | inactive
O=C(Nc1noc(-c2ccccc2)c1Cl)C(F)(F)F | inactive
Nc1noc(-c2ccccc2)c1Cl | inactive
O=C(CC[N+](=O)[O-])c1ccc(Cl)cc1 | inactive
CSc1onc(-c2ccccc2)c1Cl | inactive
Oc1cc(-c2ccc(Cl)cc2)on1 | inactive
CS(=O)(=O)Oc1cc(-c2ccccc2)on1 | inactive
c1ccc(CSc2cc(-c3ccccc3)no2)cc1 | inactive
O=[N+]([O-])c1cc(-c2cc(Cl)no2)ccc1Cl | inactive
CNC(=O)Nc1cc(-c2ccccc2)on1 | inactive
Clc1ccc(-c2ccno2)cc1 | inactive
FC(F)(F)c1cc(-c2ccccc2)on1 | inactive
COC(=O)Nc1cc(-c2ccccc2)on1 | inactive
Cc1ccc(C(=O)CC[N+](=O)[O-])cc1 | inactive
O=C(CC[N+](=O)[O-])c1ccc(Cl)cc1Cl | inactive
Nc1noc(-c2ccccc2)c1Br | inactive
CCSCCOc1cc(-c2ccccc2)no1 | inactive
O=C(Nc1cc(-c2ccccc2)on1)C(F)(F)F | inactive
